Test results published in PubChem BioAssay (NCI).
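How tested: cells in 96-well plates exposed to compound for 48 hours at five concentrations. Definition used: TGI = concentration required for complete inhibition of growth.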

Columns and labels:
Experiment in all cases: growth of human tumour cells (NCI), 48 h
SN12C renal = tested on: SN12C renal
SNB-75 CNS = tested on: SNB-75 CNS
OVCAR-3 ovarian = tested on: OVCAR-3 ovarian
HCC-2998 colon = tested on: HCC-2998 colon
UACC-257 melanoma = tested on: UACC-257 melanoma
OVCAR-4 ovarian = tested on: OVCAR-4 ovarian
MALME-3M melanoma = tested on: MALME-3M melanoma
MDA-MB-231 breast = tested on: MDA-MB-231 breast
U251 CNS = tested on: U251 CNS
PC-3 prostate = tested on: PC-3 prostate
CAKI-1 renal = tested on: CAKI-1 renal
786-0 renal = tested on: 786-0 renal
UACC-62 melanoma = tested on: UACC-62 melanoma
MCF7 breast = tested on: MCF7 breast
NCI-H226 lung = tested on: NCI-H226 lung
A549 NSCLC = tested on: A549 NSCLC
NCI-H23 lung = tested on: NCI-H23 lung
SK-OV-3 ovarian = tested on: SK-OV-3 ovarian

SMILES	TGI (SN12C renal) [µM]	TGI (SNB-75 CNS) [µM]	TGI (OVCAR-3 ovarian) [µM]	TGI (HCC-2998 colon) [µM]	TGI (UACC-257 melanoma) [µM]	TGI (OVCAR-4 ovarian) [µM]	TGI (MALME-3M melanoma) [µM]	TGI (MDA-MB-231 breast) [µM]	TGI (U251 CNS) [µM]	TGI (PC-3 prostate) [µM]	TGI (CAKI-1 renal) [µM]	TGI (786-0 renal) [µM]	TGI (UACC-62 melanoma) [µM]	TGI (MCF7 breast) [µM]	TGI (NCI-H226 lung) [µM]	TGI (A549 NSCLC) [µM]	TGI (NCI-H23 lung) [µM]	TGI (SK-OV-3 ovarian) [µM]
CC(=O)OCC(OC(C)=O)C(OC(C)=O)C(C=NN(C(C)=O)S(=O)(=O)c1ccc(/C=C2\NC(=O)NC2=O)cc1)OC(C)=O (configuration not stated)	> 100	> 100	> 100	> 100	> 100	> 100	> 100	> 100	> 100	> 100	> 100	> 100	> 100	> 100	> 100	> 100	> 100	> 100
COc1c2c(cc3oc(C)cc(=O)c13)OC(=N)C(C(N)=O)C2CC(=O)c1ccc(N)cc1 (configuration not stated)	> 100	> 100	> 100	> 100	> 100	> 100	> 100	> 100	> 100	> 100	> 100	> 100	> 100	> 100	> 100	> 100	–	–
Fc1ccc2nc3n(c2c1)C(c1c(F)cccc1F)SC3 (configuration not stated)	> 100	> 100	> 100	> 100	> 100	> 100	> 100	> 100	> 100	> 100	> 100	> 100	> 100	> 100	> 100	> 100	> 100	> 100
Cc1cc(=O)[nH]c(NN2C(Cl)C(=O)C2c2ccc(Cl)cc2)n1 (configuration not stated)	35.7	42.5	30.3	32.1	> 55.1	> 64.7	32.3	72	52.4	> 100	30.7	33	39.9	42.5	42	> 64.8	39.1	> 100
COc1nc(N)c(NC2OC(CO)C(O)C2O)c(=O)[nH]1 (configuration not stated)	> 100	> 100	> 100	> 100	> 100	> 100	> 100	> 100	> 100	> 100	> 100	> 100	> 100	> 100	> 100	> 100	> 100	> 100
COCn1c2ccc(OC(C)=O)cc2c2c(=O)oc(N(C)C)nc21	> 100	> 100	–	> 100	> 100	> 100	> 100	> 100	> 100	> 100	> 100	> 100	> 100	> 100	> 100	> 100	> 100	> 100
CCCC(=O)NC1=C(NCC)C(=O)c2ccccc2C1=O	> 100	> 100	> 100	> 100	> 100	> 100	> 100	> 100	> 100	> 100	–	> 100	> 100	> 100	> 100	> 100	> 100	> 100
Cc1ccc(-c2nc3ccc(Cl)cc3[nH]2)cc1	> 100	> 100	> 100	> 100	> 100	> 100	> 100	> 100	> 100	> 100	> 100	> 100	> 100	> 100	> 100	> 100	> 100	> 100
O=c1oc2ccccc2cc1/C=N/N1C(=S)N(c2ccccc2)C(=Nc2ccccc2)C1=Nc1ccccc1	> 100	> 100	> 100	> 100	> 100	–	> 100	> 100	> 100	> 100	> 100	> 100	> 100	> 100	> 100	> 100	> 100	> 100
Cc1cc(C)c(C2=NOC(c3ccccc3)(c3cc(=O)n(-c4ccccc4)s3)O2)c(C)c1 (configuration not stated)	> 100	> 100	–	> 100	> 100	> 100	40.1	95	66.4	> 100	33.7	41.3	51.5	37.2	57.1	> 100	53.4	> 100
CNC(=O)N1CN(c2ccccc2)C2(CCN(CCCC(=O)c3ccc(F)cc3)CC2)C1=O	75.4	> 100	41.6	22.2	24.2	–	35.3	90.3	60.4	> 100	> 100	87.1	43.4	16	79.4	> 100	87.5	79.9
O=C1C2CC=CCC2C(=O)N1n1c(-c2ccccc2)n[nH]c1=O (configuration not stated)	> 100	–	> 100	> 100	> 100	> 100	> 100	> 100	> 100	> 100	> 100	> 100	> 100	> 100	> 100	> 100	> 100	> 100
C=CCOC(=O)/C(=C\c1ccc(OC)c(OC)c1)c1ccc(OC)c(OC)c1	> 100	36.3	> 100	> 100	> 100	–	> 100	> 100	> 100	> 100	> 100	> 100	> 100	> 100	> 100	> 100	> 100	> 100
CC1=NN(c2ccccc2)C(=O)/C1=C/c1ccc(O)cc1	> 100	–	> 100	> 100	> 100	> 100	> 100	> 100	> 100	> 100	> 100	> 100	> 100	> 100	> 100	> 100	> 100	> 100
